# Laboratory results reported in US7972848B2, “Isolation and identification of cross-reactive T cells” (Opexa Therapeutics, Inc., priority 2002, dated 2011).
# Legend:
# [1] = molecular target: HLA-DR (DRB1*1501) (Homo sapiens, UniProt P01903+P01911); conditions: cited from earlier work
# [2] = tested on: peripheral blood mononuclear cells (PBMC); assay: Estimated precursor frequency of peptide-reactive and cross-reactive T cells in PBMC (proliferation assay); assay type: cell-based, human; conditions: for estimated frequency of T cells specific for the antigen: in PBMC, primed and tested with the same antigen; for estimated frequency of cross-reactive T cells (reactive to both peptides) primed by the peptide: primed by the labelled peptide
# Protocol: The T cell responses to two synthetic peptides containing an identical core sequence of seven amino acids was measured to estimate the precursor frequency of cross-reactive T cells in PBMC. Two 13-mer peptides corresponding to residues 1-13 of HHV-6 U24 and residues 93-105 of MBP were synthesized and purified to greater than 95%. The MBP93-105 and HHV-6 (U24)1-13 peptides contain the identical core sequence of 7 amino acids with distinct flanking residues (MBP-IVTPRTPPPSQGK and HHV6-MDRPRTPPPSYSE) (SEQ ID NO: 8 and SEQ ID NO: 9, respectively).
# Peripheral blood mononuclear cells (PBMC) were seeded at 3×10^5 cells per well in 96-well U-bottomed plates in the presence of the peptides of MBP93-105 or HHV-6 (U24)1-13 at 30 μg/ml or the whole MBP (40 μg/ml), respectively. A total of 24 wells were plated for each antigen. Seven days later, the cultures were tested for the reactivity to both peptides using AIM-V serum free medium (Gibco BRL, Grand Island, N.Y.) alone as a control. To this end, each culture was split into three identical aliquots and tested for the reactivity to MBP and the indicated peptides in duplicate. Two aliquots were tested for reactivity to peptide MBP93-105 and peptide HHV-6 (U24)1-13 at the same concentration of 30 μg/ml, respectively, in the presence of irradiated (6,000 rads) autologous PBMC (10^5 cells per well) as a source of antigen-presenting cells (APC). One aliquot served as a control (medium alone in the presence of APC). The reactivity of the end cultures was measured after 72 hours by proliferation assays as described in Zhang et al., “MHC restricted clonotypic depletion of human myelin basic protein by T cell vaccination,” Science 261:1451-1454 (1993), which is hereby incorporated by reference in its entirety.
# According to the reactivity of the resulting T cells, they were categorized as mono-specific T cells or cross-reactive T cells. Mono-specific MBP- or HHV-6 reactive T cells were reactive only to the peptide originally used to prime the cells. Mono-specific T cells were defined as reactive to the given peptide when CPM was greater than 1,000 and exceeded CPM of the control (medium alone) and of the other peptide by at least three-fold. Cross-reactive T cells were reactive to both peptides after being originally primed with only one of the peptides. Cross-reactive T cells were defined as CPM of both peptides exceeded 1,000 and the control CPM by at least three-fold. The frequency of peptide-reactive T cells was then estimated by dividing the number of positive wells by the total number of PBMC seeded in the initial culture.
# [3] = tested on: serum IgG antibodies; assay: Serum antibody reactivity to the peptides by ELISA; assay type: binding, human; conditions: serum dilutions 1:50 and 1:100; MS patients compared to control subjects
# Protocol: We further addressed whether the increased T cell responses to both peptides of HHV-6 (U24)1-13 and MBP93-105 were consistent with potential B cell sensitization to the peptides in MS patients as compared to healthy controls. To this end, serum specimens freshly obtained from the same MS patients and the control subjects were examined for specific antibody reactivity to the peptides by ELISA.
# Antibody titers were determined in serum specimens by ELISA. Briefly, microtiter plates were coated overnight at 4° C. with the peptides at 5 μg/ml in a carbonate buffer (100 mM, pH 9.5). An irrelevant peptide and MBP41-59 were used as reference peptides. Non-specific binding sites were saturated with FBS-PBS for 1 hour and washed subsequently with PBS-T. Serum samples were prepared in serial dilutions (1:50, 1:100, 1:500) with FBS-PBS and 100 μl of each sample were added in duplicate wells. The rest of the procedure is the same as that described above.
# [4] = tested on: MBP83-99 specific and MBP93-105 specific T cell clones; assay: Cross-reactivity of T cell responses of MBP83-99 and MBP93-105 specific T cell clones; assay type: cell-based, human; conditions: four MBP83-99 specific and six MBP93-105 specific T cell clones; data not shown
# Excerpt: Although the T cell recognition of MBP in MS patients is relatively heterogeneous, some regions of MBP have immunodominant properties, such as the 84-102/83-99 region and the 151-170 region of MBP. The immunodominant properties of these regions may be associated with their binding affinity to HLA-DR (DRB 1*1501) preferentially expressed in the MS population. […] Although the 93-105 region of MBP homologues and the 1-13 region of HHV-6 (U24) have an overlap of 4 amino acids (PRTP) (SEQ ID NO:11) with the 83-99 immunodominant region of MBP, the PRTP sequence alone is not sufficient to form an individual T cell epitope and is unlikely to represent the immunodominant T cell epitopes. […] However, the possibility exists that the increased T cell sensitization to MBP in MS patients may be initially triggered by the HHV-6 antigen that shares the sequence homology with MBP93-105 and later spreads to other epitopes of MBP by the mechanism known as epitope spreading.
substance,measurement,setting,value
"84-103: peptide corresponding to the 84-103 region of MBP (DPGSRPHLIRLFSRDAPGRE; UniProt P02686 84-103, looked up, fragment)",binding affinity to DRB1*1501 / HLA-DR,[1],highest binding affinity
myelin basic protein [whole MBP],estimated frequency of T cells specific for the antigen,[2]; MS patients,0.6×10^−6
same,estimated frequency of T cells specific for the antigen,[2]; healthy controls,0.6×10^−6
"144-163: peptide corresponding to the 144-163 region of MBP (HGSKYLATASTMDHARHGFL; UniProt P02686 144-163, looked up, fragment)",binding affinity to DRB1*1501 / HLA-DR,[1],highest binding affinity
IVTPRTPPPSQGK (listed as Homo sapiens) [MBP93-105],estimated frequency of T cells specific for the antigen,[2]; MS patients,0.53×10^−6
same,estimated frequency of cross-reactive T cells (reactive to both peptides) primed by the peptide,[2]; MS patients,0.36×10^−6
same,estimated frequency of T cells specific for the antigen,[2]; healthy controls,0.19×10^−6
same,estimated frequency of cross-reactive T cells (reactive to both peptides) primed by the peptide,[2]; healthy controls,0.09×10^−6
same,serum antibody titers for the peptide,[3],elevated
same,cross-reactivity between T cell responses to MBP83-99 peptide and MBP93-105 peptide,[4],no cross-reactivity
same,binding affinity to DRB1*1501 / HLA-DR,[1],does not have high binding affinity
MDRPRTPPPSYSE (listed as Homo sapiens) [HHV-6 (U24)1-13],cross-reactive T cells primed by the peptide as share of all T cells recognizing peptide MBP93-105,[2]; MS cohort,greater than 50%
same,estimated frequency of T cells specific for the antigen,[2]; MS patients,0.7×10^−6
same,frequency of T cells initially primed with the whole MBP and reacted to peptide HHV-6 (U24)1-13,"[2]; MS patients, p=0.08 vs control",0.33×10^−6
same,frequency of T cells initially primed with the whole MBP and reacted to peptide HHV-6 (U24)1-13,[2]; control group,0.05×10^−6
same,estimated frequency of T cells specific for the antigen,[2]; healthy controls,0.32×10^−6
same,estimated frequency of cross-reactive T cells (reactive to both peptides) primed by the peptide,[2]; healthy controls,0.17×10^−6
same,serum antibody titers for the peptide,[3],elevated
